Reference: publication PMC5813016 (Nature Communications, 2018)
“Also recorded” adds a separate entry of the source.

Legend:
[1] = system: human D1R / β-arrestin2-GFP in U2OS cells; assay: β-arrestin2-GFP membrane recruitment, TIRFM, U2OS cells; type: cell-based; conditions: U2OS cells expressing human D1R, 1 μM agonist, 10 min
Protocol: This stable U2OS cell line was generated, obtained and licensed from Professor Marc G. Caron, Duke University, Durham, NC, USA. […] The U2OS cells were cultured under antibiotic selection in DMEM (Invitrogen) containing 25 mM glucose and 4 mM L-glutamine supplemented with 10% dialyzed fetal bovine serum, […] Geneticin, […] Zeocin, and 100 U/ml penicillin/streptomycin (all from Invitrogen) and incubated at 37 °C in 5% CO2. Cells from passage four through ten were used in these experiments. Cells were grown in 35 mm glass bottomed imaging dishes (Mattek Corp). Cells were incubated for 1 h in serum free media (SFM) and subsequently treated for 10 min at 37 °C with 0.01% DMSO (control) or 1 μM of all test compounds dissolved in SFM followed by immediate fixation on ice with a 4% paraformaldehyde/1× phosphate buffered saline solution.
TIRFM was used to visualize proteins at the plasma membrane of cells such as D1 receptors and recruited β-arrestin-GFP[65]. All images were captured using a Zeiss PS.1 Elyra Superresolution fluorescence microscope equipped with TIRF module.
Custom image analysis scripts were developed to automatically identify and quantify β-arrestin membrane recruitment. We employed standard methods of image processing based on grayscale morphology. First 16bit images were transformed to 8bit range via square root transformation to improve identification of punctate structure of varying intensity. Images were smoothed with small Gaussian kernel to eliminate noise (h = 2px, σ = 1). At the next step images were transformed via tophat operation with large kernel (radius 30px) to eliminate non-uniformity of the background. Second tophat transform with small kernel (radius 5px) was used to enhance signal and eliminate local intensity variation around puncta. This image was then processed to find locations of puncta intensity peaks via non-maximal suppression filter with 3px radius of region considered in non-maximal suppression, and threshold 20. Finally the boundaries of puncta were identified using marker controlled watershed operation with peaks serving as foreground markers. After having identified each puncta, we used 8bit transformed but otherwise non-processed images to quantify intensity and area of each region. We focused on two endpoints, number of puncta per cell and integrated intensity of puncta per cell (sum of the products of average intensity and area of each puncta within a cell), both adjusted for cell area as described below. The boundaries of the cells were identified via Otsu's method, followed by hole filling and identification of the largest closely connected component. The area of the foreground was used as normalization factor to account for occasional differences in cell areas in the field of view. Specifically all foreground areas across experiment were pooled and divided by the median of the areas to obtain normalization factor for each image. This factor was then used for adjustment for number of puncta and integrated intensity of puncta, which scale with the number of cells. Puncta outside of cell boundaries were filtered out.
The results were aggregated over batches of cells recorded at the same time, with three or more batches per condition, approximately 20 cells per well. The statistical significance was tested via one-way ANOVA with treatment as a factor. To address the problem of severe inequality of variances across the treatment groups assessed via Bartlett′s test, we used square root transformation. All statistical results for the number of puncta per cell and integrated intensity of puncta per cell are presented for transformed variables. Significant ANOVA findings were followed with post-hoc comparisons with Dunnett′s procedure in case of comparisons with the control group or with false discover rate adjustment[69] otherwise. All statistical tests were performed two-tailed at a 5% level of significance.

[2] = target: human dopamine D1 receptor (hD1R) (Homo sapiens, UniProt P21728); assay: hD1R cAMP HTRF assay (stable HEK293); conditions: percent of maximum response of 5 µM dopamine
[3] = target: human D3R (Homo sapiens, UniProt P35462); assay: Human D3R radioligand binding ([3H]-7-OH-DPAT, CHO)
Protocol: (§1) Binding assays were performed using stably expressed human D1R LTK, HEK293 rat D1R (rD1R), CHO human D2R (hD2R), CHO human D3R, and Millipore CHEM-1 human D5R (HTS129M) cell lines or primary striatal tissue from cynomolgus monkey brain. […] These ligand and tissue concentrations were used in time course studies to determine linearity and equilibrium conditions for binding. Binding reached equilibrium with the specified amount of tissue by 30 min at 37 °C for hD1R, rD1R, mD1R, 20 min at 37 °C for D2R and D3R and 60 min at room temperature for D5R. […] Membrane radioligand levels were determined by liquid scintillation counting of the filter plates in 50 µl Ecolume. […] Ki values were calculated according to the Cheng-Prusoff equation.

[4] = target: human dopamine D5 receptor (hD5R) (Homo sapiens, UniProt P21918); assay: hD5R cAMP HTRF assay (stable HEK293); conditions: for Efficacy hD5R cAMP: percent of maximum response of 5 µM dopamine
[5] = target: human D2R (hD2R) (Homo sapiens, UniProt P14416); assay: Human D2R radioligand binding ([3H]-spiperone, CHO)
Protocol: as §1

[6] = target: human D5R (Homo sapiens, UniProt P21918); assay: Human D5R radioligand binding ([3H]-SCH23390, CHEM-1)
Protocol: as §1

[7] = target: human D1R (Homo sapiens, UniProt P21728); assay: Human D1R radioligand binding ([3H]-SCH23390, LTK cells)
Protocol: as §1

[8] = system: cynomolgus monkeys; assay: Monkey spontaneous eye blink rate (EBR); type: in vivo, Macaca fasicularis; conditions: monkey; data not shown
Protocol: Increase in spontaneous EBR has been previously shown with D1 agonists and partial agonists. To confirm the specificity of the response in our particular assay set up for D1 activation, we verified that the D1 receptor antagonist SCH-39166 fully blocks the increased eye blink response of non-catechol full D1 agonist that is a close structural analog of the compounds in this paper (data not shown). All procedures involving animals were conducted with approval of the Pfizer Institutional Animal Care and Use Committee (Groton, CT) and compliant with the regulations and standards of the Animal Welfare Act (9CFR2, 9CFR3). Three male Cynomolgus macaques (Macaca fasicularis) of Mauritian origin, 7–10 years old, SPF for CHV-1, SIV, STLV1 and SRV 1, 2, 5 were used. Animals were exposed to 12 h light/dark cycle (lights on 6:00 AM – 6:00 PM). […] EBRS were recorded from chaired animals for 2 min at 10 min intervals by a trained observer through direct visual observation who was blinded to experimental conditions. Animals were chaired at approximately 7:30 AM. After vehicle or compound administration, eye blinks were recorded during the following intervals: from 10 to 50 min (0–1 h), 130 to 170 min (2–3 h), 310 to 350 min (5–6 h). Animals were returned to their home cages between two consecutive sessions and after the final recording of the day. Blood samples (1 ml) were collected from the femoral vein at 1 and 5 h after the first dose to quantitate plasma compound levels. […] A77636 was dissolved in 0.9% sterile saline, formulated fresh prior to administration, and given once per day for 3 days. […] Vehicle control was administered on day 0.
EBR data were first converted to blinks per minute. EBR were averaged by binning into 3 periods: Period 1 (0–1 h after the first dose) EBR = mean of 10, 20, 30, 40, and 50 min recordings; Period 2 (2–3 h after the first dose) EBR = mean of 130, 140, 150, 160, and 170 min recordings; Period 3 (5–6 h after the first dose) EBR = mean of 310, 320, 330, 340, and 350 min recordings. For Fig. 5c EBR data were averaged by binning data from periods 1 through 3 as daily EBR. Data from each animal was then normalized to their respective Day 1 EBR and expressed as percent of Day 1 EBR for each drug. EBR data were analyzed with SAS® 9.4 (SAS Institute Inc. Cary, NC) using a mixed linear model (Mixed Procedure) for repeated measures. The model included treatment, day, time period, and their interactions as fixed effects, and animal and animal-by-day interaction as random effects. A first order autoregressive model was used for longitudinal covariance structure. Differences between least squares means across days, overall and for each time period, were tested and adjusted for multiple comparisons via Tukey method. […]

[9] = Rat pharmacokinetic studies; type: in vivo, Wistar Hannover rat
Protocol: Rat pharmacokinetic studies were conducted at BioDuro, Pharmaceutical Product Development, Inc. (Shanghai, China). Wistar Hannover rats (227–293 gram weight) were obtained from Vital River Laboratories (China). All animal studies were conducted in accordance with the Pfizer Institutional Animal Care and Use Committee (Groton, CT), using protocols approved by Pfizer PDM′s Global BA Committee (2009). Jugular vein-cannulated male Wistar Hanover rats were maintained on a 12 h light/dark cycle for a minimum of three days in a temperature-controlled and humidity-controlled environment with free access to food and water. Individual animals (n = 2 or 3 per dose/route) were administered a single dose of compound by either intravenous injection via tail vein or oral gavage based on body weight. […] The PF-6142 intravenous dose (1 mg/kg) was formulated in saline acidified with three molar equivalents of 1 N hydrochloric acid and the PF-6142 oral dose (5 mg/kg) was formulated in 0.5% methylcellulose. […] Formulations were agitated until all of the test article was dissolved. […] From each rat, serial blood samples were collected via jugular vein cannula prior to dose administration and at the following time points post-dose: 0.033 (i.v. only), 0.083, 0.25, 0.5, 1, 2, 4, 7, and 24 h. […] All blood samples were placed on wet ice until centrifugation. Following centrifugation, the plasma was transferred to polypropylene tubes and stored frozen at either −20 °C to −80 °C until analysis. Urine was collected from all intravenous-dosed rats into collection tubes from the collection intervals of 0–7 h and 7–24 h post-dose. […] All urine samples were stored at −80 °C until analysis. All samples were processed for quantitation of compound concentrations using protein precipitation methodology followed by analysis using liquid chromatography-tandem mass spectrometry (LC-MS/MS). […] The pharmacokinetic parameters (including those in Supplementary Table 3) were computed by non-compartmental analysis[61] using Watson Bioanalytical LIMS version 7.4 (Thermo Fischer Scientific, CA).

[10] = system: D1R in rat striatal neurons; assay: D1R desensitization in primary rat striatal neurons (cAMP after SKF-81297 challenge); type: cell-based; conditions: rat striatal neurons pretreated 120 min with 10 μM agonist
Protocol: Striatal neurons were chosen for the desensitization studies because they express endogenous D1 receptors and are a physiologically relevant tissue for examining neurotransmitter receptor desensitization in vitro. […] Both hemispheres of the striatum were microdissected from the embryonic rat brains and placed into HBSS. All isolated tissue was combined and washed 1× with HBSS, followed by trypsinization using a 0.05% trypsin-EDTA solution for 15 min at 37 °C. […] The cell suspension was added to the top of 5 ml complete MEM media with 1 ml of 100% FBS serum at bottom of a 15 ml tube and centrifuged at 1450 rpm for 5 min. The […] and diluted 10-20× in complete MEM and cell density determined. Cells were plated at a density of 35,000 cells/well in poly-ornithine/laminin coated 96 well plates (Biocoat, BD Falcon) and cultured in Neurobasal media supplemented with B27, 1× Glutamax, and penicillin/streptomycin (100 U/mL) (all from Invitrogen) at 37 °C in 5% CO2 for 14-16 days prior to assay. […] After the pretreatment, cells were washed twice at 5 min intervals with 250 μl/well fresh Neurobasal media. […] The concentration of cAMP (nM) from treated wells was interpolated from a cAMP standard curve by non-linear regression least squares analysis using Graphpad Prism 5.02. […] The percent desensitization was calculated as the percent decrease in cAMP relative to vehicle control. Statistical differences were compared by a one-way ANOVA with Dunnett's post-test analysis using Graphpad Prism 5.02.

Sequence of human D3R (P35462 whole entry): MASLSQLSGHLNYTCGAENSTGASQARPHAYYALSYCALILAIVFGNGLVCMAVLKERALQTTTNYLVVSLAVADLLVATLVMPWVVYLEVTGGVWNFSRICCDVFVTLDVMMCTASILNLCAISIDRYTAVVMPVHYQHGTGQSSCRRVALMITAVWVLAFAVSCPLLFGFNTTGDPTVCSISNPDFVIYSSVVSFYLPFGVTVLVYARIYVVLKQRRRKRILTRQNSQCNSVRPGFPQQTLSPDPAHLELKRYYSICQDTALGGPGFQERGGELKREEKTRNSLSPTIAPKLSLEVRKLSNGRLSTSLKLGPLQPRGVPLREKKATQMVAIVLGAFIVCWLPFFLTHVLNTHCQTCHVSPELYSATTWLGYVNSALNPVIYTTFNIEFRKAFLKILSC
Sequence of human dopamine D5 receptor (hD5R) (P21918 whole entry): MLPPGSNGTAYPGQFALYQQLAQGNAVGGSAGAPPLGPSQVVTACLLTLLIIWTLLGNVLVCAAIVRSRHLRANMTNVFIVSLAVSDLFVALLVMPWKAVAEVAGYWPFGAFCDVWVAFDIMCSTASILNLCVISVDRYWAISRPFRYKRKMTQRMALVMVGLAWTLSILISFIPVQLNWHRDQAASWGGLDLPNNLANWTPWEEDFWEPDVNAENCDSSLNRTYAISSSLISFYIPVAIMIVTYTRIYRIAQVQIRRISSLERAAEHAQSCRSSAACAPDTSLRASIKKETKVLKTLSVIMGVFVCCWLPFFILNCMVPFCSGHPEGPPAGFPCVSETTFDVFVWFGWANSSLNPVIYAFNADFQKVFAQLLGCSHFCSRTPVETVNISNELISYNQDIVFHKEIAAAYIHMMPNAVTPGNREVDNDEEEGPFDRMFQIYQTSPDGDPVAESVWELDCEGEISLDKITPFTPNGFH
Sequence of human dopamine D1 receptor (hD1R) (P21728 whole entry): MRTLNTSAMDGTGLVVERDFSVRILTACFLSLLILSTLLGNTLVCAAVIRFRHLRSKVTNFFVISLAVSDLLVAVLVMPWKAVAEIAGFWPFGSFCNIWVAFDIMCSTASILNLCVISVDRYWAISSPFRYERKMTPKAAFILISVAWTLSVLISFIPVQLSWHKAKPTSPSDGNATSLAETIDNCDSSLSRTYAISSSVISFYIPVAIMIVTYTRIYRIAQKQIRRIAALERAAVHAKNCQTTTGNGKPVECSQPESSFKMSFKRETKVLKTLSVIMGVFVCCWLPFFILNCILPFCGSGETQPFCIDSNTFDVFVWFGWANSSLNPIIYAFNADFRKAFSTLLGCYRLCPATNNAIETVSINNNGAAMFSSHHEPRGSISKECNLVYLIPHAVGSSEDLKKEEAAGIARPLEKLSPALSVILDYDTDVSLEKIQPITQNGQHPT
Sequence of human D5R (P21918 whole entry): as the sequence (P21918 whole entry) above
Sequence of human D1R (P21728 whole entry): as the sequence (P21728 whole entry) above
Sequence of human D2R (hD2R) (P14416 whole entry): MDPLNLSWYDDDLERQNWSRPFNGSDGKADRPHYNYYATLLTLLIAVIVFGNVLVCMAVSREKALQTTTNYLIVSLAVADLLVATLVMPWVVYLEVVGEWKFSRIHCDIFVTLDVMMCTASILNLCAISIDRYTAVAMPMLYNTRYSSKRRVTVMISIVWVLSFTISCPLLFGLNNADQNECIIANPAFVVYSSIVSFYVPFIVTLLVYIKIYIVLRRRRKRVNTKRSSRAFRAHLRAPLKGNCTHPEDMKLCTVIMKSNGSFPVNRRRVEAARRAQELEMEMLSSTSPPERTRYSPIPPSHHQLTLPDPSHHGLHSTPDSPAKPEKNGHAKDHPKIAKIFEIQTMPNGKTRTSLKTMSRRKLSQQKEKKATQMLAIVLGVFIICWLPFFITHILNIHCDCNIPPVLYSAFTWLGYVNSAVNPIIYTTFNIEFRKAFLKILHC

## NCCc1ccc(O)c(O)c1 [Dopamine, reference compound]
[1]
  β-arrestin-GFP recruitment to the plasma membrane (TIRFM): membrane associated β-arrestin puncta appeared rapidly; also recorded: significantly higher signal

## Oc1cc2c(cc1O)[C@H]1c3ccccc3CN[C@@H]1CC2 (racemic) [Dihydrexidine, reference compound]
[1]
  β-arrestin-GFP recruitment to the plasma membrane (TIRFM): significantly higher signal
[2]
  Efficacy hD1R cAMP: 100±2
[3]
  Ki: 387 ± 21 nM

## Cn1nccc1-c1ccc(Oc2nccc3occc23)cc1 [PF-4211]
[4]
  EC50: 1780 ± 144 nM
  Efficacy hD5R cAMP: 53±1
[5]
  Ki: > 4280 nM
[3]
  Ki: > 671 nM
[6]
  Ki: 1890 ± 508 nM
[7]
  Ki: 3140 ± 335 nM

## CN1CCc2cc(Cl)c(O)cc2[C@H]2c3ccccc3CC[C@@H]21 [SCH-39166]
[8]
  blockade of EBR increase induced by a non-catechol full D1 agonist: fully blocks

## Oc1cc2c(c(Cl)c1O)CCNCC2c1ccccc1 (stereo not shown) [SKF-81297, reference compound]
[1]
  β-arrestin-GFP recruitment to the plasma membrane (TIRFM): membrane associated β-arrestin puncta appeared rapidly
[4]
  Efficacy hD5R cAMP: 100±1

## Oc1cc2c(cc1O)C(c1ccccc1)CNCC2 (stereo not shown) [SKF-38393, reference compound]
[9]; intravenous (1 mg/kg; PF-2334 0.1 mg/kg)
  CL: rapid clearance
[9]; male, Wistar Hannover, plasma, iv
  clearance: 245 mL/min/kg
[9]; male, Wistar Hannover, plasma, iv, read-out: Vdss
  Vd: 3.9 L/kg
[9]; male, Wistar Hannover, plasma, oral bioavailability
  bioavailability: 9.5%
[9]; male, Wistar Hannover, plasma, read-out: t½ (converted)
  half-life: 24 min
[9]; oral bioavailability
  F: low oral bioavailability
[10]
  percent desensitization of D1R cAMP response to 1 μM SKF-81297 challenge: 40–60%
[2]
  Efficacy hD1R cAMP: 41±3
[3]
  Ki: > 671 nM
